Data reported in patent US5854252A, “Dihalotriazolopyrimidine derivatives” (Shell Internationale Research Maatschappij B.V., priority 1993, dated 1998).
Converted amounts (≈) assume the structure as drawn.

Tests used:
Leptosphaeria nodorum [1] = test: Activity against wheat leafspot (LN), Example 54(e); type: in vivo; conditions: therapeutic foliar spray as under (a) (600 ppm)
Description: The test is a direct therapeutic one using a foliar spray. Wheat seedlings (cv Norman), at the single leaf stage, are inoculated with an aqueous suspension containing 1.5×10^6 conidia/ml. The inoculated plants are kept for 24 hours at 20° C. in a high humidity cabinet, followed by spraying with the test compound as described under (a). After drying, the plants are kept for 6-8 days in the glasshouse at 22° C. and 70% relative humidity. Assessment is based on the density of lesions per leaf compared with that on leaves of control plants. The extent of disease control in all the above tests is expressed as a rating compared with either an untreated control or a diluent-sprayed-control, according to the criteria: […]

Plasmopara viticola [2] = test: Direct protectant activity against vine downy mildew (PVP), Example 53(c); type: in vivo; conditions: protectant foliar spray, 1000 ppm
Description: The test is a direct protectant one using a foliar spray. The lower surface of leaves of whole vine plants (cv Cabernet Sauvignon) are sprayed with the test compound at a dosage of 1000 ppm using an automated sprayline as described under (a), and after a subsequent period of 24 hours under normal glasshouse conditions the lower surfaces of the leaves are inoculated by spraying with an aqueous suspension containing 2.5×10^4 zoosporangia/ml. The inoculated plants are kept for 24 hours in a high humidity cabinet, 5 days under normal glasshouse conditions and then returned for a further 24 hours to high humidity. Assessment is based on the percentage of leaf area covered by sporulation compared with that on control leaves. The extent of disease control in all the above tests is expressed as a rating compared with either an untreated control or a diluent-sprayed-control, according to the criteria: […]

[3] = system: Pseudocercosporella herpotrichoides; test: Activity against wheat eyespot in-vitro (PHI), Example 53(j); type: cell-based; conditions: 50 ppm, 12 days at 20° C.
Description: This test measures the in vitro activity of compounds against the fungus causing wheat eyespot. The test compound is dissolved or suspended in acetone and is added into 4 ml aliquots of half strength Potato Dextrose Broth dispensed in 25-compartment petri dishes to give a final concentration of 50 ppm compound and 2.5% acetone. Each compartment is inoculated with a 6 mm diameter plug of agar/mycelium taken from a 14 day old culture of P. herpotrichoides. Plates are incubated at 20° C. for 12 days until the assessment of mycelial growth. The extent of disease control in all the above tests is expressed as a rating compared with either an untreated control or a diluent-sprayed-control, according to the criteria: […]

Cercospora arachidicola = test: Field pot test with Cercospora arachidicola on peanuts; type: in vivo; conditions: Mycosphaerella arachidis, topical, 360 h, 500 μg/ml spray, 1000 l/ha, 15 days after treatment, Abbott formula, read-out: % efficacy Cercospora arachidicola
Description: 15 Seeds of peanuts were sown in pots filled with a soil substrate. When the plants have developed 4 true leaves (approx. 12-14 days after seeding) the fungicides and the test compounds were applied using a hand sprayer. The test compounds were applied at a concentration of 500 μg/ml in a […] containing 10% acetone and 0.05% Triton X 155 in water. The total amount of […] corresponded to 1000 l/ha. Six replicates (pots) per treatment were used. 2 days after treatment the pots were exposed to peanut plants in the field on which the fungus, Cercospora arachidicola, had formed sporulating lesions. The assessment was carried out 15 days after treatment by estimating the percentage of infected leaf area. The % efficacy was calculated using the Abbott formula.

Leptosphaeria nodorum [4] = test: Activity against wheat leafspot (LN), Example 53(f); type: in vivo; conditions: therapeutic foliar spray, 1000 ppm
Description: The test is a direct therapeutic one, using a foliar spray. Leaves of wheat plants (cv Norman), at the single leaf stage, are inoculated by spraying with an aqueous suspension containing 1×10^6 spores/ml. The inoculated plants are kept for 24 hours in a high humidity compartment prior to treatment. The plants are sprayed with a solution of the test compound at a dosage of 1000 ppm using an automated sprayline as described under (a). After drying, the plants are kept for 6-8 days at 22° C. and moderate humidity, followed by assessment. Assessment is based on the density of lesions per leaf compared with that on leaves of control plants. The extent of disease control in all the above tests is expressed as a rating compared with either an untreated control or a diluent-sprayed-control, according to the criteria: […]

Puccinia arachidis = test: Field pot test with Puccinia arachidis on peanuts; type: in vivo; conditions: topical, 456 h, 500 μg/ml spray, 1000 l/ha, 19 days after treatment, Abbott formula, read-out: % efficacy Puccinia arachidis
Description: 15 seeds of peanuts were sown in pots filled with a soil substrate. When the plants have developed 4 true leaves the fungicides and the test compounds were applied using a hand sprayer. The test compounds were applied at a concentration of 500 μg/ml in a […] containing 10% acetone and 0.05% Triton X 155 in water. The total amount of […] corresponded to 1000 l/ha. Six replicates per treatment were used. 2 Days after treatment the pots were exposed to peanut plants in the field on which the fungus, Puccinia arachidis, had formed sporulating pustules on the leaves. The assessment was carried out 19 days after treatment by estimating the percentage of infected leaf area. The % efficacy was calculated using the Abbott formula.

[5] = system: Pseudocercosporella herpotrichoides; test: MIC by serial dilution, Example 55, Pseudocercosporella herpotrichoides; type: cell-based; conditions: Oculimacula yallundae; microtitre plates, 20° C., 6-8 days
Description: (§1) The MIC (Minimum Inhibition Concentration)-values were determined by serial dilution tests using 48-well microtitre plates. The dilution of the test compounds in the nutrient solution and the distribution to the wells were carried out by a TECAN RSP 5000 robotic sample processor.
(§2) For preparation of the nutrient solution, V8 juice (Trade Mark) was neutralised with calcium carbonate and centrifuged. The supernatant was diluted with distilled water (1:5) to the final concentration.
(§3) The fungi (Alternaria solani, Botrytis cinerea, Pseudocercosporella herpotrichoides, Micronectriella nivalis, Gaeumannomyces graminis) were added into the wells as a droplet of spore suspension. The microtitre plates were then incubated at 20° C. for 6-8 days. The MIC-value, which was defined to be the lowest concentration in the dilution series without mycelial growth, was determined by visual inspection of the plates.

Gaeumannomyces graminis = test: MIC by serial dilution, Example 55, Gaeumannomyces graminis; type: cell-based; conditions: microtitre plates, 20° C., 6-8 days
Description: as §1, §2, §3

Micronectriella nivalis = test: MIC by serial dilution, Example 55, Micronectriella nivalis; type: cell-based; conditions: microtitre plates, 20° C., 6-8 days
Description: as §1, §2, §3

Rhizoctonia solani = test: MIC in the serial dilution test, Example 56, Rhizoctonia solani; type: cell-based; conditions: microtiter serial dilution, 6-12 days
Description: (§4) The serial dilution test was carried out using Microtiter test with 24 or 48 wells per plate. The test compounds were used a 1000 μg/ml aqueous stock suspension containing 20% acetone which was then sterile filtered in a 0.2μ filter. The dilution of the sterile fungicide suspension with the nutrient solution and the subsequent pipetting into the different wells was carried out using a TECAN RSP 5000 Robotic Sample Processor. The concentrations tested ranged from 100 μg/ml down to 0.05 μg/ml. 12 Dilution steps were made. The nutrient solution was chosen according to the nutrient requirements of the pathogen. The inoculum was added as a droplet (50 μl) of a spore suspension (5×10^8 /ml) into the wells. After 6-12 days incubation at suitable temperatures, the MIC value was determined by visual estimation. The lowest concentration in the dilution row without mycelial growth was defined as the MIC value.

Botrytis cinerea [6] = test: MIC in the serial dilution test, Example 56, Botrytis cinerea; type: cell-based; conditions: microtiter serial dilution, 6-12 days
Description: as §4

Alternaria solani [7] = test: MIC in the serial dilution test, Example 56, Alternaria solani; type: cell-based; conditions: microtiter serial dilution, 6-12 days
Description: as §4

Botrytis cinerea [8] = test: MIC by serial dilution, Example 55, Botrytis cinerea; type: cell-based; conditions: microtitre plates, 20° C., 6-8 days
Description: as §1, §2, §3

Alternaria solani [9] = test: MIC by serial dilution, Example 55, Alternaria solani; type: cell-based; conditions: microtitre plates, 20° C., 6-8 days
Description: as §1, §2, §3

Pyricularia oryzae = type: in vivo; conditions: rice, therapeutic foliar spray, 1000 ppm
Plasmopara viticola [10] = test: Antisporulant activity against vine downy mildew (PVA), Example 53(a); type: in vivo; conditions: antisporulant foliar spray, 1000 ppm
Description: The test is a direct antisporulant one using a foliar spray. The lower surface of leaves of whole vine plants (cv Cabernet Sauvignon) are inoculated by spraying with an aqueous suspension containing 2.5×10^4 zoosporangia/ml two days prior to treatment with the test compound. The inoculated plants are kept for 24 hours in a high humidity compartment, then 24 hours at glasshouse ambient temperature and humidity. Infected leaves are sprayed on their lower surfaces with a solution of active material in 1:1 water/acetone containing 0.04% "TWEEN 20" (Trade Mark; a polyoxyethylene sorbitan ester surfactant). Plants are treated using an automated sprayline with an atomising nozzle. The concentration of the compound is 1000 ppm, and the spray volume is 700 l/ha. After spraying, the plants are returned to normal glasshouse conditions for 96 hours and are then transferred to the high humidity cabinet for 24 hours to induce sporulation, prior to assessment. Assessment is based on the percentage of the leaf area covered by sporulation compared with that on control leaves. The extent of disease control in all the above tests is expressed as a rating compared with either an untreated control or a diluent-sprayed-control, according to the criteria: […]

## Clc1ccccc1-c1c(Br)nc2ncnn2c1Br [Example 2, 5,7-dibromo-6-(2-chlorophenyl)-1,2,4-triazolo[1,5a]pyrimidine]
Leptosphaeria nodorum [1]
  LN (disease control rating): 1 (50-80% disease control)

## COc1ccccc1-c1c(Cl)nc2ncnn2c1Cl [Example 5]
Plasmopara viticola [2]
  Fungicidal Activity PVP (disease control rating): 2 (greater than 80% disease control)
[3]
  Fungicidal Activity PHI (disease control rating): 2 (greater than 80% disease control)

## Clc1ccc(-c2c(Cl)nc3ncnn3c2Cl)cc1Cl [Example 25]
Cercospora arachidicola
  pest or weed control at 500 µg/mL: 25%
Leptosphaeria nodorum [4]
  Fungicidal Activity LN (disease control rating): 1 (about 50-80% disease control)
Puccinia arachidis
  pest or weed control at 500 µg/mL: 42%

## Clc1ccc(-c2c(Cl)nc3ncnn3c2Cl)c(Cl)c1 [Example 35]
[5]
  MIC: 6.25 µg/mL (≈ 18.7 µM)
Gaeumannomyces graminis
  MIC: 0.39 µg/mL (≈ 1.17 µM)
Leptosphaeria nodorum [1]
  LN (disease control rating): 1 (50-80% disease control)
Micronectriella nivalis
  MIC: 0.39 µg/mL (≈ 1.17 µM)

## COc1cccc(-c2c(Cl)nc3ncnn3c2Cl)c1 [Example 4]
Plasmopara viticola [2]
  Fungicidal Activity PVP (disease control rating): 1 (about 50-80% disease control)
[3]
  Fungicidal Activity PHI (disease control rating): 2 (greater than 80% disease control)

## Cc1cccc(C)c1Oc1c(Cl)nc2ncnn2c1Cl [Example 48]
Rhizoctonia solani
  MIC: > 100 µg/mL
Botrytis cinerea [6]
  MIC: > 100 µg/mL
Alternaria solani [7]
  MIC: 25 µg/mL (≈ 80.9 µM)

## FC(F)(F)c1ccccc1-c1c(Br)nc2ncnn2c1Br [Example 44]
Botrytis cinerea [8]
  MIC: > 100 µg/mL
Alternaria solani [9]
  MIC: > 100 µg/mL

## CCOc1c(Cl)nc2ncnn2c1Cl [Example 50]
Rhizoctonia solani
  MIC: 100 µg/mL (≈ 429 µM)
Botrytis cinerea [6]
  MIC: 25 µg/mL (≈ 107 µM)
Alternaria solani [7]
  MIC: 12.5 µg/mL (≈ 53.6 µM)

## Fc1cccc(Cl)c1-c1c(Br)nc2ncnn2c1Br [Example 41]
Botrytis cinerea [8]
  MIC: 25 µg/mL (≈ 61.5 µM)
Alternaria solani [9]
  MIC: 50 µg/mL (≈ 123 µM)

## CC(C)c1ccc(-c2c(Cl)nc3ncnn3c2Cl)cc1 [Example 8]
Cercospora arachidicola
  pest or weed control at 500 µg/mL: 33%
[3]
  Fungicidal Activity PHI (disease control rating): 2 (greater than 80% disease control)
Pyricularia oryzae
  Fungicidal Activity PO (disease control rating): 1 (about 50-80% disease control)
Puccinia arachidis
  pest or weed control at 500 µg/mL: 17%

## CCOc1cccc(-c2c(Cl)nc3ncnn3c2Cl)c1OCC [Example 24]
[3]
  Fungicidal Activity PHI (disease control rating): 2 (greater than 80% disease control)
Leptosphaeria nodorum [4]
  Fungicidal Activity LN (disease control rating): 1 (about 50-80% disease control)

## Fc1cccc(-c2c(Br)nc3ncnn3c2Br)c1 [Example 43]
Botrytis cinerea [8]
  MIC: > 100 µg/mL
Alternaria solani [9]
  MIC: > 100 µg/mL

## Clc1nc2ncnn2c(Cl)c1-c1ccccc1OCc1ccccc1 [Example 20]
Plasmopara viticola [10]
  Fungicidal Activity PVA (disease control rating): 2 (greater than 80% disease control)
[3]
  Fungicidal Activity PHI (disease control rating): 1 (about 50-80% disease control)

## Clc1nc2ncnn2c(Cl)c1-c1ccc(OCc2ccccc2)cc1 [Example 15]
Leptosphaeria nodorum [4]
  Fungicidal Activity LN (disease control rating): 1 (about 50-80% disease control)

## Fc1ccc(-c2c(Cl)nc3ncnn3c2Cl)cc1 [Example 11]
[5]
  MIC: 3.13 µg/mL (≈ 11.1 µM)
Cercospora arachidicola
  pest or weed control at 500 µg/mL: 33%
[3]
  Fungicidal Activity PHI (disease control rating): 2 (greater than 80% disease control)
Gaeumannomyces graminis
  MIC: 0.2 µg/mL (≈ 0.706 µM)
Micronectriella nivalis
  MIC: 0.39 µg/mL (≈ 1.38 µM)
Puccinia arachidis
  pest or weed control at 500 µg/mL: 25%

## CC(C)c1c(Cl)nc2ncnn2c1Cl [Example 51]
Rhizoctonia solani
  MIC: 25 µg/mL (≈ 108 µM)
Botrytis cinerea [6]
  MIC: 12.5 µg/mL (≈ 54.1 µM)
Alternaria solani [7]
  MIC: 12.5 µg/mL (≈ 54.1 µM)

## O=S(=O)(Cl)c1ccccc1-c1c(Cl)nc2ncnn2c1Cl [Example 6]
Botrytis cinerea [8]
  MIC: > 100 µg/mL

## FC(F)(F)c1ccc(-c2c(Br)nc3ncnn3c2Br)cc1 [Example 42]
Botrytis cinerea [8]
  MIC: > 100 µg/mL
Alternaria solani [9]
  MIC: > 100 µg/mL

## Cc1cccc(Oc2c(Cl)nc3ncnn3c2Cl)c1 [Example 49]
Rhizoctonia solani
  MIC: > 100 µg/mL
Botrytis cinerea [6]
  MIC: 6.25 µg/mL (≈ 21.2 µM)
Alternaria solani [7]
  MIC: 25 µg/mL (≈ 84.7 µM)
